According to ChEMBL document CHEMBL1201862, “PubChem BioAssay data set” (2004):
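Briefly, cells in 96-well plates were exposed to five compound concentrations for 48 h, and endpoints were estimated by linear interpolation. GI50 marks 50% less growth.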 Calls of active or inactive are those of the source. Cut-off read from the data, not from the text of the source: active = GI50 up to about 1.1 µM and inactive = higher.

Columns and labels:
Assay in all cases: NCI tumour cell line growth inhibition, 48 h
[1] = tested on: Malme-3M
[2] = tested on: M14
[3] = tested on: TK-10
[4] = tested on: HT-29
[5] = tested on: MCF7
[6] = tested on: SK-MEL-5
[7] = tested on: RPMI-8226
[8] = tested on: IGROV-1
[9] = tested on: ACHN
[10] = tested on: PC-3
[11] = tested on: UACC-257
[12] = tested on: OVCAR-3
[13] = tested on: HL-60
[14] = tested on: HCC 2998
[15] = tested on: HOP-92
[16] = tested on: KM12
[17] = tested on: BT-549
[18] = tested on: UO-31
[19] = tested on: OVCAR-4
[20] = tested on: T47D

Measured: GI50

CC(=O)O[C@H]1C[C@H]2[C@@H]([C@H](OC(C)=O)C[C@@H]3CC4(CC[C@@]32C)OOC2(CCCCC2)OO4)[C@@H]2CC[C@H]([C@H](C)CCC(=O)O)[C@@]12C
inactive: [1] 16.4 µM | [2] 12 µM | [3] 12.4 µM | [4] 11.5 µM | [5] 4.65 µM | [6] 10.6 µM | [7] 3.46 µM | [8] 1.87 µM | [9] 7.24 µM | [10] 7.24 µM | [11] 11.4 µM | [12] 13.9 µM | [13] 4.15 µM | [14] 12 µM | [15] 1.98 µM | [16] 3.56 µM | [17] 4.24 µM | [18] 3.28 µM | [19] 2.55 µM | [20] 7 µM

CCOC(=O)/C=C(/C(=O)OCC)n1cnc2c(=O)[nH]c(NC(C)=O)nc21
inactive: [1] > 100 µM | [2] > 100 µM | [3] > 100 µM | [4] > 100 µM | [5] > 100 µM | [6] > 100 µM | [7] > 100 µM | [8] > 100 µM | [9] > 100 µM | [10] > 100 µM | [11] > 100 µM | [12] > 100 µM | [13] > 100 µM | [14] > 100 µM | [15] > 100 µM | [16] > 100 µM | [17] > 100 µM | [18] > 100 µM | [19] > 100 µM | [20] > 100 µM

O=[N+]([O-])c1ccc(NC(=S)Nc2ccccn2)cc1
inactive: [1] 72.9 µM | [2] 46.8 µM | [3] 31.3 µM | [4] 31.7 µM | [5] 12.4 µM | [6] 43.3 µM | [7] > 100 µM | [8] 11.9 µM | [9] 34.1 µM | [10] 40.6 µM | [11] 64.4 µM | [12] 18.6 µM | [13] 14 µM | [14] > 100 µM | [15] 72.4 µM | [16] 10.3 µM | [17] > 92.3 µM | [18] 26.2 µM | [19] 37.5 µM | [20] 35.7 µM
